# Data from patent US4717716A, “Immuno-regulator” (Nihon University, priority 1985, dated 1988).
# Where “and” joins values, the source holds several entries; their conditions need not be identical. Equal entries are not always repeated.
# Columns and labels:
# DDY male mouse = assay: Acute toxicity of L-carnosine in mice; assay type: in vivo
# Method: L-carnosine was administered peritoneally or orally in different amounts to a group of 10 mice and acute toxic symptoms were observed 5 hours after administration. […] L-carnosine was dissolved in a physiological saline so as to give a dose of 0.1 to 0.3 ml/10 g.
# [1] = test system: plaque-forming cells of DDY mouse immunized with sheep red blood cells (SRBC); assay: PFC method (hemolytic plaque-forming cells) in mice immunized with SRBC; assay type: in vivo; conditions: for PFC Number per g. Spleen: 4 days after immunization; for PFC reaction: mouse of 5 weeks age, 2.5×10^8 SRBC
# [2] = test system: anti-SRBC antibody in serum of mice immunized with SRBC; assay: Determination of serum antibody value (hemagglutination titer, HA-titer); assay type: in vivo, mouse; conditions: for Anti-SRBC Antibody Value N: maximal positive dilution 2^N
# Method: Blood was collected in the PFC reaction from carotid arteries of a group of five mice, from which was separated a serum in a conventional manner for determination of hemagglutination titer (HA-titer). The test serum was diluted with a phosphate buffered saline (PBS) containing 0.5-1% of a serum from a normal rabbit, and was evaluated using SRBC. The maximal dilution showing positive reaction was represented by 2^N, wherein N represents an antibody value.
# [3] = test system: male DDY mouse sensitized with picryl chloride; assay: Delayed hypersensitivity reaction (picryl chloride contact dermatitis); assay type: in vivo; conditions: for Increase of Ear control %: 0 mg/kg/day = 100; for Thickness × 10^-3cm Increase of Ear: 1% picryl chloride, average of 8 mice ± S.D.
# From the text: A male DDY mouse of 5 weeks are weighing about 20 g was used to detect its contact dermatitis by means of 2, 4, 6-trinitro-chlorobenzene (picryl chloride) (available from Tokyo Chemical Industry Co., Ltd). An ethanol solution of 1% picryl chloride was impregnated into 4-layered gauge (1×1 cm), which was then contacted with a shaved abdomen of the mouse for 10 seconds to cause primary sensitization. The secondary sensitization for test was caused on seventh day by applying an olive oil solution of 1% picryl chloride on both surfaces of one ear by means of a paint brush. The other ear had applied only olive oil as a control. After 24 hours, the mouse was anesthetized with ether, and thickness of the ear was determined in the order of 1/100 mm by a micrometer having precision of 1/100 mm. The delayed hypersensitivity reaction was calculated as follows: […]
# (Thickness of Ear Applied with Picryl Chloride after 24 Hours--Thickness of Ear before Application) minus (Thickness of Ear Applied with Olive Oil After 24 Hours--Thickness of Ear before Application).
# L-carnosine was administered subcutaneously in the indicated amount for 14 days. On the 7th day, sensitization was conducted by 1% picryl chloride, and examination was carried out on 7 days later. Values are shown in an average of 8 mices ±S.D.
# [4] = Physicochemical properties of L-carnosine
# [5] = formulated by LISA corporation in Spain since 10 years; cited from earlier work
# [6] = SRBC antigen amount 2.5 × 10^9, 100 mg/Kg/day S.C. for six days
# [7] = SRBC antigen amount 5 × 10^7, 100 mg/Kg/day S.C. for six days
# [8] = mice of 2 weeks age, 100 mg/Kg/day S.C., 2.5 × 10^8 SRBC
# [9] = mice of 5 weeks age, 100 mg/Kg/day S.C., 2.5 × 10^8 SRBC
# [10] = mice of 30 weeks age, 100 mg/Kg/day S.C., 2.5 × 10^8 SRBC
# [11] = 50 mg/kg/day subcutaneously for 14 days
# [12] = 250 mg/kg/day subcutaneously for 14 days
# [13] = 500 mg/kg/day subcutaneously for 14 days
compound,measurement,setting,value
"NCCC(=O)N[C@@H](Cc1cnc[nH]1)C(=O)O [L-carnosine, β-alanyl-L-histidine]","acute toxicity, overall",DDY male mouse; DDY male mouse,very low toxicity
same,effective amount as fraction of acute toxicity LD50,"DDY male mouse; mouse, in vivo",1/181
same,mice killed,"DDY male mouse; mouse, in vivo",one of the 10
same,toxic effect of oral administration,"DDY male mouse; oral 15,000 mg/Kg, mice",little effect
same,LD50 (minimal lethal dose),"DDY male mouse; oral, DDY male mouse, value on 72 hours","> 14,930 mg/Kg"
same,toxic symptoms,"DDY male mouse; peritoneal 15,000 mg/Kg, from about 30 minutes, a half of the mice","depression of voluntary motility, abdominal position, depression and irregularity of respiration rate"
same,LD 100,"DDY male mouse; peritoneal administration, mice","15,000 mg/Kg"
same,LD50 (95% confidence limit),"DDY male mouse; peritoneal, DDY male mouse, value on 72 hours","9,087 (8,320-9,925) mg/Kg and 9,087 mg/Kg"
same,PFC Number per Chamber,[1]; 25 mg/kg,53.0 ± 6.1
same,PFC Number per Spleen,[1]; 25 mg/kg,10.7 × 10^4
same,PFC Number per g. Spleen (%),"[1]; 25 mg/kg for 6 days, 2.5 × 10^8 SRBC, 0 mg/kg = 100",133%
same,PFC Number per g. Spleen,"[1]; 25 mg/kg for 6 days, 2.5 × 10^8 SRBC, mice",7.6 × 10^5
same,PFC Number per Chamber (%),"[1]; 25 mg/kg, 144 h",88%
same,PFC Number per Spleen (%),"[1]; 25 mg/kg, 144 h",123%
same,Weight of Spleen (%),"[1]; 25 mg/kg, 144 h",92%
same,PFC Number per Chamber,[1]; 50 mg/kg,73.6 ± 6.2
same,PFC Number per Spleen,[1]; 50 mg/kg,14.9 × 10^4
same,PFC Number per g. Spleen (%),"[1]; 50 mg/kg for 6 days, 2.5 × 10^8 SRBC, 0 mg/kg = 100",149%
same,PFC Number per g. Spleen,"[1]; 50 mg/kg for 6 days, 2.5 × 10^8 SRBC, mice",8.5 × 10^5
same,PFC Number per Chamber (%),"[1]; 50 mg/kg, 144 h",122%
same,PFC Number per Spleen (%),"[1]; 50 mg/kg, 144 h",171%
same,Weight of Spleen (%),"[1]; 50 mg/kg, 144 h",116%
same,effect on the PFC response,[1]; 100 mg/kg,No effect
same,PFC decreased,"[1]; 100 mg/kg, 144 h",30%
same,PFC increased,"[1]; 100 mg/kg, 144 h",30%
same,PFC Number per Chamber,[1]; 250 mg/kg,69.8 ± 6.5
same,PFC Number per Spleen,[1]; 250 mg/kg,14.6 × 10^4
same,PFC Number per g. Spleen (%),"[1]; 250 mg/kg for 6 days, 2.5 × 10^8 SRBC, 0 mg/kg = 100",167%
same,PFC Number per g. Spleen,"[1]; 250 mg/kg for 6 days, 2.5 × 10^8 SRBC, mice",9.5 × 10^5
same,PFC Number per Chamber (%),"[1]; 250 mg/kg, 144 h",116%
same,PFC Number per Spleen (%),"[1]; 250 mg/kg, 144 h",168%
same,Weight of Spleen (%),"[1]; 250 mg/kg, 144 h",100%
same,PFC Number per Chamber,[1]; 500 mg/kg,64.8 ± 4.9
same,PFC Number per Spleen,[1]; 500 mg/kg,8.3 × 10^4
same,PFC Number per g. Spleen (%),"[1]; 500 mg/kg for 6 days, 2.5 × 10^8 SRBC, 0 mg/kg = 100",107%
same,PFC Number per g. Spleen,"[1]; 500 mg/kg for 6 days, 2.5 × 10^8 SRBC, mice",6.1 × 10^5
same,PFC Number per Chamber (%),"[1]; 500 mg/kg, 144 h",107%
same,PFC Number per Spleen (%),"[1]; 500 mg/kg, 144 h",95%
same,Weight of Spleen (%),"[1]; 500 mg/kg, 144 h",89%
same,PFC Number per g. Spleen (%),"[1]; 2 weeks age, 100 mg/Kg/day S.C., 2.5 × 10^8 SRBC, normal = 100",64%
same,PFC Number per g. Spleen (%),"[1]; 5 weeks age, 100 mg/Kg/day S.C., 2.5 × 10^8 SRBC, normal = 100",110%
same,PFC Number per g. Spleen (%),"[1]; 30 weeks age, 100 mg/Kg/day S.C., 2.5 × 10^8 SRBC, normal = 100",177%
same,PFC Number per g. Spleen (%),"[1]; SRBC 2.5 × 10^9, 100 mg/Kg/day S.C. six days, normal = 100",71%
same,PFC Number per g. Spleen (%),"[1]; SRBC 5 × 10^7, 100 mg/Kg/day S.C. six days, normal = 100",119%
same,PFC Number per g. Spleen (%),"[1]; SRBC 5 × 10^8, 100 mg/Kg/day S.C. six days, normal = 100",53%
same,PFC Number per g. Spleen,[1]; [6],10.2 × 10^5
same,PFC Number per g. Spleen,[1]; [7],5.0 × 10^5
same,PFC Number per g. Spleen,"[1]; SRBC antigen amount 5 × 10^8, 100 mg/Kg/day S.C. for six days",8.2 × 10^5
same,effect on the PFC response,"[1]; immature mouse of 2 weeks age, 100 mg/Kg for 9 days",suppressed
same,PFC Number per g. Spleen,[1]; [8],4.8 × 10^5
same,PFC Number per g. Spleen,[1]; [9],12.5 × 10^5
same,PFC Number per g. Spleen,[1]; [10],11.7 × 10^5
same,PFC reaction,[1]; 50 and 250 mg/Kg for 6 days,increased
same,PFC reaction,[1]; dose of more than 500 mg/Kg,subsided
same,effect on the PFC response,"[1]; old mouse of 30 weeks age, 100 mg/Kg for 9 days",doubly strengthened
same,optimum dosage for the immuno-regulatory action,[1]; sc,100 mg/kg/day
same,Weight of Spleen (%),"[1]; sc, 100 mg/kg/day, 336 h",93%
same,PFC Number per Chamber (%),"[1]; sc, 100 mg/kg/day, 840 h",107%
same,PFC Number per Spleen (%),"[1]; sc, 100 mg/kg/day, 840 h",110%
same,Weight of Spleen (%),"[1]; sc, 100 mg/kg/day, 840 h",100%
same,Weight of Spleen (%),"[1]; sc, 100 mg/kg/day, 5040 h",121%
same,Anti-SRBC Antibody Value N,"[2]; 25 mg/kg for 6 days, 2.5 × 10^8 SRBC",9
same,Anti-SRBC Antibody Value N,"[2]; 50 mg/kg for 6 days, 2.5 × 10^8 SRBC",10
same,Anti-SRBC Antibody Value N,"[2]; 250 mg/kg for 6 days, 2.5 × 10^8 SRBC",9
same,Anti-SRBC Antibody Value N,"[2]; 500 mg/kg for 6 days, 2.5 × 10^8 SRBC",8
same,Anti-SRBC Antibody Value N,[2]; [6],8
same,Anti-SRBC Antibody Value N,[2]; [7],4
same,hemagglutination reaction,[2]; level of more than 500 mg/Kg,subsided
same,Anti-SRBC Antibody Value N,[2]; [8],6-7
same,Anti-SRBC Antibody Value N,[2]; [9],9-10
same,Anti-SRBC Antibody Value N,[2]; [10],9
same,Increase of Ear control %,[3]; [11],122.6%
same,Thickness × 10^-3cm Increase of Ear,[3]; [11],14.1 ± 3.6 × 10^-3cm
same,Increase of Ear control %,[3]; [12],136.5%
same,Thickness × 10^-3cm Increase of Ear,[3]; [12],15.7 ± 2.5 × 10^-3cm
same,Increase of Ear control %,[3]; [13],185.2%
same,Thickness × 10^-3cm Increase of Ear,[3]; [13],21.3 ± 8.7 × 10^-3cm
same,DHR with 1% picryl chloride,"[3]; doses of 50, 250 and 500 mg/Kg",increasing trend of reaction
same,solubility in water,[4],readily soluble in water
same,safety in use as anorexia treating agent,[5],confirmed to be safe
